Tests used:
HCV replicon 1a = assay: Cell-based HCV replicon assay (TaqMan), genotype 1a replicon; settings: Hepatitis C virus, 72 h, HCV 1a replicon cells, replicon RNA by TaqMan on day 3; EC90 = concentration for ΔCT=3.2 over baseline
Method: (§1) Measurement of inhibition by compounds of the present invention was performed using the HCV replicon system. Several different replicons encoding different HCV genotypes or mutations were used. In addition, potency measurements were made using different formats of the replicon assay, including different ways of measurements and different plating formats. See Jan M. Vrolijk et al., A replicons-based bioassay for the measurement of interferons in patients with chronic hepatitis C, 110 J. VIROLOGICAL METHODS 201 (2003); Steven S. Carroll et al., Inhibition of Hepatitis C Virus RNA Replication by 2′-Modified Nucleoside Analogs, 278(14) J. BIOLOGICAL CHEMISTRY 11979 (2003). However, the underlying principles are common to all of these determinations, and are outlined below.
(§2) Compounds of the present invention were assayed for cell-based anti-HCV activity using the following protocol. Replicon cells were seeded at 5000 cells/well in 96-well collagen I-coated Nunc plates in the presence of the test compound. Various concentrations of test compound, typically in 10 serial 2-fold dilutions, were added to the assay mixture, with the starting concentration ranging from 250 μM to 1 μM. The final concentration of DMSO was 0.5%, fetal bovine serum was 5%, in the assay media. Cells were harvested on day 3 by the addition of 1× cell lysis buffer (Ambion cat #8721). The replicon RNA level was measured using real time PCR (TaqMan® assay). The amplicon was located in 5B. The PCR primers were: 5B.2F, ATGGACAGGCGCCCTGA (SEQ. ID NO. 1); 5B.2R, […] (SEQ. ID NO. 2); the probe sequence was FAM-labeled CACGCCATGCGCTGCGG (SEQ. ID NO. 3). GAPDH RNA was used as endogenous control and was amplified in the same reaction as NS5B (multiplex PCR) using primers and VIC-labeled probe recommended by the manufacturer (PE Applied Biosystem). The real-time […] reactions were run on ABI PRISM 7900HT Sequence Detection System using the following program: 48° C. for 30 minutes, 95° C. for 10 minutes, 40 cycles of 95° C. for 15 sec, 60° C. for 1 minute. The ACT values (CT5B-CTGAPDH) were plotted against the concentration of test compound and fitted to the sigmoid dose-response model using XLfit4 (MDL). EC50 was defined as the concentration of inhibitor necessary to achieve ΔCT=1 over the projected baseline; EC90 the concentration necessary to achieve ΔCT=3.2 over the baseline. Alternatively, to quantitate the absolute amount of replicon RNA, a standard curve was established by including serially diluted T7 transcripts of replicon RNA in the Taqman assay. All TaqMan® reagents were from PE Applied Biosystems. Such an assay procedure was described in detail in e.g. Malcolm et al., Antimicrobial Agents and Chemotherapy 50: 1013-1020 (2006).
(§3) HCV replicon EC50 assay data for various replicons and mutants was calculated for selected compounds of the present invention using this method and is provided in the tables above herein.

HCV replicon 1b = assay: Cell-based HCV replicon assay (TaqMan), genotype 1b replicon; settings: Hepatitis C virus, 72 h, HCV 1b replicon cells, replicon RNA by TaqMan on day 3; EC90 = concentration for ΔCT=3.2 over baseline
Method: as §1, §2, §3

HCV replicon 1a Y93H = assay: Cell-based HCV replicon assay (TaqMan), genotype 1a Y93H mutant replicon; settings: Hepatitis C virus, 72 h, read-out: 1a Y93H EC90, HCV 1a Y93H mutant replicon cells, replicon RNA by TaqMan on day 3; EC90 = concentration for ΔCT=3.2 over baseline
Method: as §1, §2, §3

HCV replicon 2b = assay: Cell-based HCV replicon assay (TaqMan), genotype 2b replicon; settings: Hepatitis C virus, 72 h, read-out: 2b EC90, HCV 2b replicon cells, replicon RNA by TaqMan on day 3; EC90 = concentration for ΔCT=3.2 over baseline
Method: as §1, §2, §3

Row | Compound | EC90 (HCV replicon 1a) | EC90 (HCV replicon 1b) | EC90 (HCV replicon 1a Y93H) | EC90 (HCV replicon 2b)
1 | C[Si]1(C)CN[C@H](c2ncc(-c3ccc(-c4ccc(-c5cnc([C@@H]6CCCN6)[nH]5)cc4)cc3)[nH]2)C1 [Compound 2] | > 100 nM | > 1000 nM |  | 
2 | COC(=O)N[C@H](C(=O)N1CCC[C@H]1c1ncc(-c2ccc(-c3ccc(-c4cnc([C@@H]5C[Si](C)(C)CN5C(=O)[C@@H](NC(=O)OC)C(C)C)[nH]4)cc3)cc2)[nH]1)C(C)C [Compound 3] | 0.16 nM | 0.005 nM | 398 nM | 
3 | COC(=O)N[C@H](C(=O)N1CC(F)(F)C[C@H]1c1ncc(-c2ccc(-c3ccc(-c4cnc([C@@H]5C[Si](C)(C)CN5C(=O)[C@@H](NC(=O)OC)C(C)C)[nH]4)cc3)cc2)[nH]1)C(C)C [Compound 4] | 0.1 nM | 0.007 nM | 272 nM | 
4 | COC(=O)N[C@H](C(=O)N1C[Si](C)(C)C[C@H]1c1ncc(-c2ccc(-c3ccc(-c4cnc([C@@H]5[C@H]6CC[C@H](C6)N5C(=O)[C@@H](NC(=O)OC)C(C)C)[nH]4)cc3)cc2)[nH]1)C(C)C [Compound 5] | 0.21 nM | 0.004 nM | 203 nM | 
5 | COC(=O)N[C@H](C(=O)N1C[Si](C)(C)C[C@H]1c1ncc(-c2ccc(-c3ccc(-c4cnc([C@@H]5C[Si](C)(C)CN5C(=O)[C@@H](NC(=O)OC)C(C)C)[nH]4)cc3)cc2)[nH]1)C(C)C [Compound 6] | 0.98 nM | 0.015 nM | > 1000 nM | 
6 | COC(=O)N[C@H](C(=O)N1C[C@H](F)C[C@H]1c1ncc(-c2ccc(-c3ccc(-c4cnc([C@@H]5C[Si](C)(C)CN5C(=O)[C@@H](NC(=O)OC)C(C)C)[nH]4)cc3)cc2)[nH]1)C(C)C [Compound 7] | 0.77 nM | 0.009 nM | 229 nM | 
7 | COC(=O)N[C@H](C(=O)N1CCC[C@H]1c1ncc(-c2ccc(-c3ccc4[nH]c([C@@H]5C[Si](C)(C)CN5C(=O)[C@@H](NC(=O)OC)C(C)C)nc4c3)cc2)[nH]1)C(C)C [Compound 9] | > 1 nM | < 1 nM | > 1000 nM | 
8 | COC(=O)N[C@@H](C(=O)N1CCC[C@@H]1c1ncc(-c2ccc(-c3ccc(-c4cnc([C@H]5C[Si](C)(C)CN5C(=O)[C@H](NC(=O)OC)C5CC5)[nH]4)cc3)cc2)[nH]1)C1CC1 [Compound 23] | 1.16 nM |  | 1000 nM | 550 nM
9 | CC(C)(C)OC(=O)N1C[Si](C)(C)C[C@H]1c1ncc(-c2ccc(-c3ccc(-c4[nH]c([C@@H]5C[C@H]6C[C@H]6N5C(=O)OC(C)(C)C)nc4F)cc3)cc2)[nH]1 [Compound 42] | > 1 nM |  | > 1000 nM | > 1000 nM
10 | COC(=O)N[C@H](C(=O)N1C[Si](C)(C)C[C@H]1c1ncc(-c2ccc(-c3ccc(-c4[nH]c([C@@H]5C[C@H]6C[C@H]6N5C(=O)[C@@H](NC(=O)OC)C(C)C)nc4F)cc3)cc2)[nH]1)C(C)C [Compound 44] | 0.17 nM |  | 285 nM | 168 nM
11 | CC(C)(C)OC(=O)N1C[Si](C)(C)C[C@H]1c1ncc(-c2ccc(-c3ccc(-c4cnc([C@@H]5C[C@H]6C[C@H]6N5C(=O)OC(C)(C)C)[nH]4)cc3)cc2)[nH]1 [Compound 46] | > 1000 nM |  | > 1000 nM | 422 nM
12 | COC(=O)N[C@H](C(=O)N1C[Si](C)(C)C[C@H]1c1ncc(-c2ccc(-c3ccc(-c4cnc([C@@H]5C[C@H]6C[C@H]6N5C(=O)[C@@H](NC(=O)OC)C5CCOCC5)[nH]4)cc3)cc2)[nH]1)C1CCOCC1 [Compound 48] | 0.18 nM |  | 144 nM | 9 nM
13 | CC(C)(C)OC(=O)N1C[Si](C)(C)C[C@H]1c1nc(Cl)c(-c2ccc(-c3ccc(-c4[nH]c([C@@H]5C[C@H]6C[C@H]6N5C(=O)OC(C)(C)C)nc4Cl)cc3)cc2)[nH]1 [Compound 49] | > 1000 nM |  | > 1000 nM | > 1000 nM
14 | COC(=O)N[C@H](C(=O)N1C[Si](C)(C)C[C@H]1c1nc(Cl)c(-c2ccc(-c3ccc(-c4[nH]c([C@@H]5C[C@H]6C[C@H]6N5C(=O)[C@@H](NC(=O)OC)C(C)C)nc4Cl)cc3)cc2)[nH]1)C(C)C [Compound 51] | 0.008 nM |  | 13.7 nM | 2.9 nM
15 | COC(=O)N[C@H](C(=O)N1C[C@H](F)C[C@H]1c1ncc(-c2ccc(C#Cc3ccc(-c4cnc([C@@H]5C[Si](C)(C)CN5C(=O)OC(C)(C)C)[nH]4)cc3)cc2)[nH]1)C(C)C [Compound 56] | 681 nM |  | > 1000 nM | 
16 | COC(=O)N[C@H](C(=O)N1C[C@H](F)C[C@H]1c1ncc(-c2ccc(C#Cc3ccc(-c4cnc([C@@H]5C[Si](C)(C)CN5)[nH]4)cc3)cc2)[nH]1)C(C)C [Compound 57] | 780 nM |  | > 1000 nM | 
17 | CC(C)(C)OC(=O)N1C[Si](C)(C)C[C@H]1c1ncc(-c2ccc(-c3ccc(-c4[nH]c([C@@H]5CCCN5C(=O)OC(C)(C)C)nc4C4CC4)cc3)cc2)[nH]1 [Compound 61] | 81 nM |  | 655 nM | 
18 | CC(C)(C)OC(=O)N1C[Si](C)(C)C[C@H]1c1ncc(-c2ccc(-c3ccc(-c4ncc([C@@H]5C[C@H]6C[C@H]6N5C(=O)OC(C)(C)C)[nH]4)cc3)cc2)[nH]1 [Compound 68] | > 1000 nM |  | > 1000 nM | 
19 | COC(=O)N[C@H](C(=O)N1CCC[C@H]1c1ncc(-c2ccc(-c3ccc(-c4cnc([C@@H]5C[Si](C)(C)CN5C(=O)[C@@H](NC(=O)OC)C(C)C)[nH]4)c(OC)c3)cc2)[nH]1)C(C)C [Compound 70] | > 1 nM | 0.006 nM | > 1000 nM | 
20 | COC(=O)N[C@H](C(=O)N1C[Si](C)(C)C[C@H]1c1ncc(-c2ccc(-c3ccc4[nH]c([C@@H]5CC(F)(F)CN5C(=O)[C@@H](NC(=O)OC)C(C)C)nc4c3)cc2F)[nH]1)C(C)C [Compound 71] | > 1 nM | 0.005 nM | > 1000 nM | 
21 | COC(=O)N[C@H](C(=O)N1CCC[C@H]1c1cnc(-c2ccc(-c3ccc(-c4cnc([C@@H]5C[Si](C)(C)CN5C(=O)[C@@H](NC(=O)OC)C(C)C)[nH]4)cc3)cc2)[nH]1)C(C)C [Compound 72] | 0.092 nM | 0.005 nM | 330 nM | 
22 | COC(=O)N[C@H](C(=O)N1C[Si]2(CCCC2)C[C@H]1c1cnc(-c2ccc(-c3ccc(-c4cnc([C@@H]5CCCN5C(=O)[C@@H](NC(=O)OC)C(C)C)[nH]4)cc3)cc2)[nH]1)C(C)C [Compound 73] | 0.38 nM | 0.006 nM | 973 nM | 
23 | COC(=O)N[C@H](C(=O)N1CC(F)(F)C[C@H]1c1cnc(-c2ccc(-c3ccc(-c4cnc([C@@H]5C[Si](C)(C)CN5C(=O)[C@@H](NC(=O)OC)C(C)C)[nH]4)cc3)cc2)[nH]1)C(C)C [Compound 74] | 0.27 nM |  | 644 nM | 
24 | CC(C)(C)OC(=O)N1CCC[C@H]1C(=O)Nc1n[nH]c2ccc(-c3ccc(-c4cnc([C@@H]5C[Si](C)(C)CN5C(=O)OC(C)(C)C)[nH]4)cc3)cc12 [Compound 76] | > 1000 nM |  | > 10000 nM | 
25 | CC(C)(C)OC(=O)N1CCC[C@H]1C(=O)Nc1nn(C(=O)OC(C)(C)C)c2ccc(-c3ccc(-c4cnc([C@@H]5C[Si](C)(C)CN5C(=O)OC(C)(C)C)[nH]4)cc3)cc12 [Compound 77] | > 1000 nM |  | > 10000 nM | 
26 | CC(C)(C)OC(=O)N1CCC[C@H]1c1cnc(-c2ccc3c(c2)[Si](C)(C)c2cc(-c4cnc([C@@H]5CCCN5C(=O)OC(C)(C)C)[nH]4)ccc2-3)[nH]1 [Compound 80] | > 1 nM | 467 nM |  | 
27 | COC(=O)N[C@H](C(=O)N1CCC[C@H]1c1cnc(-c2ccc3c(c2)[Si](C)(C)c2cc(-c4cnc([C@@H]5CCCN5C(=O)[C@@H](NC(=O)OC)C(C)C)[nH]4)ccc2-3)[nH]1)C(C)C [Compound 82] | 0.076 nM | 0.043 nM | 811 nM | 

Source: patent US20140378416A1, “SILYL-CONTAINING HETEROCYCLIC COMPOUNDS AND METHODS OF USE THEREOF FOR THE TREATMENT OF VIRAL DISEASES” (priority 2011, published 2014)
